The values that follow come from PubChem BioAssay AID1745844 (Carcinogenic Potency Database (CPDB), 2022).

The data set deals with rodent lifetime carcinogenesis bioassay, tumor incidence TD50. Put plainly: chronic cancer bioassays in animals – CPDB, compiled studies (AID 1745844).

SMILES strings stand for the structures. Activity calls are given as the source filed them. No rule for the calls is given here.

As for `FCC(F)(F)F`, the carcinogen call is “negative (inactive)” (mouse, strain B6C3F1, females, inhaled, site: liver, lesion: hepatocellular adenoma, dosed 104 weeks, study length 104 weeks); “negative (inactive)” (mouse, strain B6C3F1, females, inhaled, site: liver, lesion: hepatocellular carcinoma, dosed 104 weeks, study length 104 weeks); “negative (inactive)” (mouse, strain B6C3F1, females, inhaled, site: lung, lesion: alveolar/bronchiolar tumor, dosed 104 weeks, study length 104 weeks); “negative (inactive)” (mouse, strain B6C3F1, males, inhaled, site: lung, lesion: alveolar/bronchiolar tumor, dosed 104 weeks, study length 104 weeks); “negative (inactive)” (rat, strain Han-Ibm Wistar, males, inhaled, site: testis, lesion: interstitial-cell tumor, dosed 108 weeks, study length 108 weeks). Moreover, the TD50 (as a rule, the 50% point of the dose-response relation for the toxic effect studied) is 1.5e+06 mg/kg/day (inactive) (mouse, strain B6C3F1, males, inhaled, site: liver, lesion: hepatocellular adenoma, dosed 104 weeks, study length 104 weeks); 260000 mg/kg/day (inactive) (mouse, strain B6C3F1, males, inhaled, site: liver, lesion: hepatocellular carcinoma, dosed 104 weeks, study length 104 weeks); 29900 mg/kg/day (rat, strain Alpk:APfSD, males, inhaled, site: testis, lesion: Leydig-cell adenoma, dosed 104 weeks, study length 104 weeks); 2.8e+06 mg/kg/day (inactive) (rat, strain Han-Ibm Wistar, females, inhaled, site: liver, lesion: hepatocellular carcinoma, dosed 108 weeks, study length 108 weeks); 70100 mg/kg/day (inactive) (rat, strain Han-Ibm Wistar, males, inhaled, site: liver, lesion: hepatocellular adenoma, dosed 108 weeks, study length 108 weeks); 140000 mg/kg/day (inactive) (rat, strain Han-Ibm Wistar, males, inhaled, site: liver, lesion: hepatocellular carcinoma, dosed 108 weeks, study length 108 weeks).
Compound `C1CNCCN1` showed a TD50 (rat, strain MRC, females, in drinking water, site: any site (literature study), lesion: several types, types named in the paper, dosed 75 weeks, study length 104 weeks) of 11.2 mg/kg/day.
Regarding `CC(=O)Nc1ccc2c(c1)Cc1cc(NC(C)=O)ccc1-2`, the TD50 stood at 307 mg/kg/day (monkey, strain Cynomolgus [Macaca fascicularis], both sexes, in feed, site: breast, lesion: carcinoma, dosed 258 weeks, study length 1513 weeks) and 25.6 mg/kg/day (monkey, strain Cynomolgus [Macaca fascicularis], both sexes, in feed, site: lung, lesion: alveolar/bronchiolar carcinoma, dosed 258 weeks, study length 1513 weeks).
On to `CCCOC(=O)C1c2cc3c(cc2CC(C)C1C(=O)OCCC)OCO3` (configuration not stated), for which the TD50 (mouse, strain B6AKF1, females, oral dosing, site: any site (literature study), lesion: several types, types named in the paper, dosed 76 weeks, study length 76 weeks) was 4390 mg/kg/day (inactive); the TD50 (mouse, strain B6AKF1, females, oral dosing, site: lung, lesion: adenoma, dosed 76 weeks, study length 76 weeks) was 4690 mg/kg/day (inactive); the TD50 (mouse, strain B6C3F1, males, oral dosing, site: any site (literature study), lesion: several types, types named in the paper, dosed 76 weeks, study length 76 weeks) is 374 mg/kg/day (inactive); the TD50 (mouse, strain B6C3F1, males, oral dosing, site: liver, lesion: hepatoma, dosed 76 weeks, study length 76 weeks) is 1050 mg/kg/day (inactive); the TD50 (mouse, strain B6C3F1, males, oral dosing, site: lung, lesion: adenoma, dosed 76 weeks, study length 76 weeks) is 4650 mg/kg/day (inactive). Further, the carcinogen call is, setting by setting: (mouse, strain B6AKF1, females, oral dosing, site: liver, lesion: hepatoma, dosed 76 weeks, study length 76 weeks) “negative (inactive)”; (mouse, strain B6AKF1, males, oral dosing, site: any site (literature study), lesion: several types, types named in the paper, dosed 76 weeks, study length 76 weeks) “negative (inactive)”; (mouse, strain B6AKF1, males, oral dosing, site: liver, lesion: hepatoma, dosed 76 weeks, study length 76 weeks) “negative (inactive)”; (mouse, strain B6AKF1, males, oral dosing, site: lung, lesion: adenoma, dosed 76 weeks, study length 76 weeks) “negative (inactive)”; (mouse, strain B6C3F1, females, oral dosing, site: any site (literature study), lesion: one or several types, types not named, dosed 76 weeks, study length 76 weeks) “negative (inactive)”; (mouse, strain B6C3F1, females, oral dosing, site: liver, lesion: hepatoma, dosed 76 weeks, study length 76 weeks) “negative (inactive)”. Also, the carcinogen call (mouse, strain B6C3F1, females, oral dosing, site: lung, lesion: several types, types named in the paper, dosed 76 weeks, study length 76 weeks) is “negative (inactive)”.
As to `O=NN(CC(F)(F)F)CC(F)(F)F`, the TD50 (rat, strain Fischer 344, females, in drinking water, site: liver, lesion: malignant tumor, dosed 30 weeks, study length 130 weeks) was 4.98 mg/kg/day (inactive). Under “rat, strain Sprague-Dawley, males, in drinking water, site: several sites, sites named in the paper, lesion: malignant tumor, dosed 30 weeks, study length 114 weeks”, the carcinogen call is “negative (inactive)”.
For `O=CNc1nc(-c2ccc([N+](=O)[O-])o2)cs1`, the TD50 was 83.8 mg/kg/day (hamster, strain Syrian Golden, males, in feed, site: forestomach, lesion: squamous-cell papilloma, dosed 48 weeks, study length 70 weeks); 54 mg/kg/day (hamster, strain Syrian Golden, males, in feed, site: urinary bladder, lesion: squamous-cell carcinoma, dosed 48 weeks, study length 70 weeks); 18.7 mg/kg/day (mouse, strain Charles River CD1, females, in feed, site: any site (literature study), lesion: several types, types named in the paper, dosed 36 weeks, study length 68 weeks); 1120 mg/kg/day (mouse, strain Charles River CD1, females, in feed, site: lung, lesion: adenoma, dosed 36 weeks, study length 68 weeks); 128 mg/kg/day (mouse, strain Charles River CD1, females, in feed, site: urinary bladder, lesion: spindle-cell tumor, dosed 36 weeks, study length 68 weeks); 128 mg/kg/day (mouse, strain Charles River CD1, females, in feed, site: urinary bladder, lesion: squamous-cell carcinoma, dosed 36 weeks, study length 68 weeks). Also, the TD50 (mouse, strain Charles River CD1, females, in feed, site: urinary bladder, lesion: transitional-cell carcinoma, dosed 36 weeks, study length 68 weeks) is 33.3 mg/kg/day; the TD50 (mouse, strain Charles River CD1, males, in feed, site: any site (literature study), lesion: several types, types named in the paper, dosed 40 weeks, study length 77 weeks) is 21.5 mg/kg/day; the TD50 (mouse, strain Charles River CD1, males, in feed, site: urinary bladder, lesion: spindle-cell tumor, dosed 40 weeks, study length 77 weeks) was 97.1 mg/kg/day; the TD50 (mouse, strain Charles River CD1, males, in feed, site: urinary bladder, lesion: squamous-cell carcinoma, dosed 40 weeks, study length 77 weeks) was 250 mg/kg/day; the TD50 (mouse, strain Charles River CD1, males, in feed, site: urinary bladder, lesion: transitional-cell carcinoma, dosed 40 weeks, study length 77 weeks) was 30.5 mg/kg/day; the TD50 (mouse, strain NMRI, females, by gavage, site: any site (literature study), lesion: benign tumor, dosed 68 weeks, study length 75 weeks) was determined as 69.4 mg/kg/day. Moreover, the TD50 is 59.5 mg/kg/day (mouse, strain NMRI, females, by gavage, site: any site (literature study), lesion: malignant tumor, dosed 68 weeks, study length 75 weeks); 164 mg/kg/day (mouse, strain NMRI, females, by gavage, site: forestomach, lesion: papilloma, dosed 68 weeks, study length 75 weeks); 139 mg/kg/day (mouse, strain NMRI, females, by gavage, site: forestomach, lesion: squamous-cell carcinoma, dosed 68 weeks, study length 75 weeks); 2390 mg/kg/day (mouse, strain NMRI, females, by gavage, site: liver, lesion: malignant tumor, dosed 68 weeks, study length 75 weeks); 944 mg/kg/day (mouse, strain NMRI, females, by gavage, site: stomach, glandular, lesion: malignant tumor, dosed 68 weeks, study length 75 weeks); 47.6 mg/kg/day (mouse, strain Swiss, females, in feed, site: all sites, lesion: leukemia, dosed 33 weeks, study length 52 weeks). Further, the TD50 (mouse, strain Swiss, females, in feed, site: all sites, lesion: leukemia, dosed 46 weeks, study length 53 weeks) is 55.4 mg/kg/day; the TD50 (mouse, strain Swiss, females, in feed, site: all sites, lesion: lymphocytic leukemia, dosed 46 weeks, study length 66 weeks) was 78.3 mg/kg/day; the TD50 (mouse, strain Swiss, females, in feed, site: forestomach, lesion: squamous-cell papilloma, dosed 46 weeks, study length 66 weeks) was 235 mg/kg/day; the TD50 (mouse, strain Swiss, females, in feed, site: lung, lesion: alveolar-cell adenoma, dosed 33 weeks, study length 52 weeks) was found to be 208 mg/kg/day; the TD50 (mouse, strain Swiss, females, in feed, site: lung, lesion: alveolar-cell carcinoma, dosed 46 weeks, study length 66 weeks) is 86.4 mg/kg/day; the TD50 (mouse, strain Swiss, females, in feed, site: lung, lesion: carcinoma, dosed 46 weeks, study length 53 weeks) was 163 mg/kg/day. Also, the TD50 reads like this: (mouse, strain Swiss, females, in feed, site: urinary bladder, lesion: carcinoma, dosed 33 weeks, study length 52 weeks) 19.8 mg/kg/day; (mouse, strain Swiss, females, in feed, site: urinary bladder, lesion: one or several types, types not named, dosed 46 weeks, study length 53 weeks) 18.2 mg/kg/day; (mouse, strain Swiss, females, in feed, site: urinary bladder, lesion: transitional-cell carcinoma, dosed 46 weeks, study length 66 weeks) 7.72 mg/kg/day; (rat, strain Fischer 344, males, in feed, site: urinary bladder, lesion: carcinoma, dosed 30 weeks, study length 104 weeks) 3.18 mg/kg/day; (rat, strain Fischer 344, males, in feed, site: urinary bladder, lesion: papillary carcinoma, dosed 30 weeks, study length 52 weeks) 5.92 mg/kg/day; (rat, strain Fischer 344, males, in feed, site: urinary bladder, lesion: several types, types named in the paper, dosed 30 weeks, study length 52 weeks) 1.31 mg/kg/day. For the same compound, the TD50 (rat, strain Fischer, males, in feed, site: liver, lesion: hyperplastic nodule, dosed 36 weeks, study length 74 weeks) was 263 mg/kg/day; the TD50 (rat, strain Fischer, males, in feed, site: urinary bladder, lesion: carcinoma, invasive, dosed 36 weeks, study length 74 weeks) worked out at 9.74 mg/kg/day; the TD50 (rat, strain Fischer, males, in feed, site: urinary bladder, lesion: carcinoma, invasive, dosed 77 weeks, study length 77 weeks) was found to be 18.1 mg/kg/day; the TD50 (rat, strain Fischer, males, in feed, site: urinary bladder, lesion: carcinoma, noninvasive, dosed 36 weeks, study length 74 weeks) is 60.5 mg/kg/day; the TD50 (rat, strain Fischer, males, in feed, site: urinary bladder, lesion: carcinoma, noninvasive, dosed 77 weeks, study length 77 weeks) stood at 195 mg/kg/day; the TD50 (rat, strain Fischer, males, in feed, site: urinary bladder, lesion: carcinoma, dosed 36 weeks, study length 74 weeks) is 4.51 mg/kg/day. For the same compound, the TD50 is 9.87 mg/kg/day (rat, strain Fischer, males, in feed, site: urinary bladder, lesion: carcinoma, dosed 77 weeks, study length 77 weeks); 48.6 mg/kg/day (rat, strain Sprague-Dawley, females, in feed, site: urinary bladder, lesion: papillary carcinoma, dosed 26 weeks, study length 70 weeks); 82.7 mg/kg/day (rat, strain Sprague-Dawley, females, in feed, site: urinary bladder, lesion: papillary carcinoma, dosed 46 weeks, study length 70 weeks); 5.07 mg/kg/day (rat, strain Sprague-Dawley, females, in feed, site: urinary bladder, lesion: several types, types named in the paper, dosed 46 weeks, study length 63 weeks). Also, the carcinogen call is, setting by setting: (hamster, strain Syrian Golden, males, in feed, site: urinary bladder, lesion: several types, types named in the paper, dosed 48 weeks, study length 70 weeks) “positive”; (rat, strain Fischer, males, in feed, site: urinary bladder, lesion: carcinoma, dosed 72 weeks, study length 72 weeks) “positive”; (rat, strain Sprague-Dawley, females, in feed, site: urinary bladder, lesion: several types, types named in the paper, dosed 26 weeks, study length 70 weeks) “positive”; (rat, strain Sprague-Dawley, females, in feed, site: urinary bladder, lesion: several types, types named in the paper, dosed 46 weeks, study length 70 weeks) “positive”; (rat, strain Sprague-Dawley, females, in feed, site: urinary bladder, lesion: transitional-cell carcinoma, dosed 26 weeks, study length 70 weeks) “positive”; (rat, strain Sprague-Dawley, females, in feed, site: urinary bladder, lesion: transitional-cell carcinoma, dosed 46 weeks, study length 70 weeks) “positive”. Moreover, the carcinogen call (rat, strain Sprague-Dawley, males, in feed, site: urinary bladder, lesion: transitional-cell carcinoma, dosed 26 weeks, study length 52 weeks) is “positive”; the carcinogen call (rat, strain Sprague-Dawley, males, in feed, site: urinary bladder, lesion: transitional-cell carcinoma, dosed 46 weeks, study length 52 weeks) was “positive”; the carcinogen call (rat, strain Wistar, females, in feed, site: urinary bladder, lesion: transitional-cell carcinoma, dosed 34 weeks, study length 52 weeks) was “positive”.
